Assay type in all cases: cell-based
Test [1] concerns A2780/CP3. The test is described as follows: Cytotoxicity IC50 in A2780/CP3 cell line, 1 hour drug exposure. The settings on record: for IC50: 1 hour of exposure to the drug, average of repeat experiments, dash = IC50 >100 μM; for CP3 Rfact: resistance factor = IC50 in A2780/CP3 ÷ IC50 in A2780/WT. As for the experimental part: (§1) All experiments are with 1 hour of exposure to the drug, IC50 in μM. The platinum compounds have been tested by the resistance factor in CP3 cell line (CP3 Rfact) and C25 cell line (C25 Rfact). The terms (CP3 Rfact) and (C25 Rfact) are determined utilizing the following equations, wherein WT stands for wild-type. CP3 Rfact=IC50 in A2780/CP3÷IC50 in A2780/WT C25 Rfact=IC50 in A2780/C25÷IC50 in A2780/WT
(§2) In addition, Compounds with “ - - - ” in the IC50 column indicate the IC50s are >100 μM.

In test [2] the test system is A2780/C25. The test is described as follows: Cytotoxicity IC50 in A2780/C25 cell line, 1 hour drug exposure. To be noted: for IC50: 1 hour of exposure to the drug, average of repeat experiments; for C25 Rfact: resistance factor = IC50 in A2780/C25 ÷ IC50 in A2780/WT. How it is done: as §1, §2
Test [3] has as its system A2780/WT. The test is described as follows: Cytotoxicity IC50 in A2780/WT cell line, 1 hour drug exposure. The settings on record: 1 hour of exposure to the drug; average of repeat experiments. As for the experimental part: as §1, §2

15 molecules from US7777060B2, “Platinum analogs with bis-nitrile-containing ligands” (BioNumerik Pharmaceuticals, Inc., priority 2007, dated 2010) can be followed below.

One may read the IC50 as the midpoint of a concentration-inhibition curve. Higher therefore signals weaker potency in that assay. In the case of `[Cl][Pt-2]([Cl])([N+]#CC1CCC1)[N+]#CC1CCC1` [BNP3021, Cis-bis-(cyclobutanecarbonitrile)dichloroplatinum (II)], in test [1], the 50% inhibitory concentration (IC50) worked out at 41.3 µM and the “CP3 Rfact” value is recorded as 2.97. Also, in test [2], the midpoint of inhibition, the IC50, lay at 29.2 µM and the “C25 Rfact” value came to 2.10. The same molecule returned an IC50 in test [3] of 13.9 µM.

With “Trans-bis(cyclopropaneacetonitrile)dichloroplatinum (II) [BNP3014/t]”, the IC50 in test [1] was more than 100 µM; in test [2], 92 µM; in test [3], 68.1 µM. Further, the “C25 Rfact” value in test [2] is 1.35.

Consider `N#CC1Cc2ccccc21.N#CC1Cc2ccccc21.[Cl][Pt@SP1][Cl]` (stereo not drawn) [BNP3030, Cis-bis(bicyclo[4.2.0]octa-1(6),2,4-triene-7-carbonitrile)dichloroplatinum (II)], for which, in test [1], the 50% inhibitory concentration (IC50) came to 61.9 µM and the “CP3 Rfact” value was 1.20. In test [2], 58.9 µM corresponded to half-maximal inhibition (IC50) and the “C25 Rfact” value was 1.15. The same molecule showed a half-maximal inhibitory concentration (IC50) in test [3] of 51.4 µM.

For the molecule `CCCCOCCC#N.CCCCOCCC#N.[Cl][Pt@SP1][Cl]` [BNP3022, Cis-bis(3-butoxypropanenitrile)dichloroplatinum (II)], the IC50 is more than 100 µM in test [1], 65 µM in test [2] and 73.8 µM in test [3]. Also, the “C25 Rfact” value in test [2] turned out to be 0.88.

`N#CCc1ccccc1C(F)(F)F.N#CCc1ccccc1C(F)(F)F.[Cl][Pt@SP1][Cl]` [BNP3037/t, Trans-bis-[2-(trifluoromethyl)-phenylacetonitrile]dichloroplatinum]: the 50% inhibitory concentration (IC50) in test [1] was more than 100 µM; in test [2], 68.7 µM; in test [3], 87.1 µM. In test [2], the “C25 Rfact” value was 0.79.

Turning to `N#CCCCc1ccccc1.N#CCCCc1ccccc1.[Cl][Pt@SP1][Cl]` [BNP3029/t, Trans-bis-(4-phenylbutyronitrile)dichloroplatinum (II)], in test [1], the IC50 worked out at 19.2 µM and the “CP3 Rfact” value was 1.19. Further, in test [2], the 50% inhibitory concentration (IC50) was 17.7 µM and the “C25 Rfact” value is 1.09. The molecule further showed an IC50 in test [3] of 16.2 µM.

“Cis-bis-[4-(trifluoromethoxy)-phenylacetonitrile]dichloroplatinum (II) [BNP3031]”: in test [1], the half-inhibitory concentration (IC50) was determined as 35.9 µM and the “CP3 Rfact” value turned out to be 1.95. In addition, in test [2], inhibition was half-maximal at 23.2 µM (IC50) and the “C25 Rfact” value amounted to 1.26. Half-maximal inhibition in test [3] (IC50) required 18.4 µM.

Take `Cc1cccc(CC#[N+][Pt-2]([Cl])([Cl])[N+]#CCc2cccc(C)c2)c1` [BNP3026, Cis-bis(m-tolylacetonitrile)dichloroplatinum (II)]: in test [1], the midpoint of inhibition, the IC50, lay at 28.5 µM and the “CP3 Rfact” value was 1.32. Moreover, in test [2], the midpoint of inhibition, the IC50, lay at 24 µM and the “C25 Rfact” value amounted to 1.11. In addition, the IC50 in test [3] turned out to be 21.6 µM.

As to `Cc1ccccc1CC#[N+][Pt-2]([Cl])([Cl])[N+]#CCc1ccccc1C` [BNP3024, Cis-bis-(o-tolylacetonitrile)dichloroplatinum (II)], in test [1], it took 18.6 µM to reach half-maximal inhibition (IC50) and the “CP3 Rfact” value is on record as 1.34. For the same molecule, in test [2], the IC50 worked out at 18.7 µM and the “C25 Rfact” value was 1.34. Further, it took 13.9 µM to reach half-maximal inhibition in test [3] (IC50).

For the molecule “Trans-bis(2,6-difluoro-3-methylphenylacetonitrile)dichloroplatinum (II) [BNP3036/t]”, in test [1], half-maximal inhibition (IC50) was put at 54.1 µM and the “CP3 Rfact” value is listed as 2.28. In test [2], the IC50 worked out at 35.2 µM and the “C25 Rfact” value was 1.49. Also, the IC50 in test [3] came out at 23.7 µM.

With “Cis-bis(cyclopropaneacetonitrile)dichloroplatinum (II) [BNP3014/c]”, in test [1], the half-inhibitory concentration (IC50) is 55.7 µM and the “CP3 Rfact” value worked out at 2.39. In test [2], half-maximal inhibition (IC50) was put at 45.4 µM and the “C25 Rfact” value came out at 1.94. Half-maximal inhibition in test [3] (IC50) required 23.3 µM.

For `N#CCCC1CCCCC1=O.N#CCCC1CCCCC1=O.[Cl][Pt@SP1][Cl]` (stereo not drawn) [BNP3020, Cis-bis[3-(2-oxo-cyclohexyl)-propionitrile]dichloroplatinum (II)], in test [1], inhibition was half-maximal at 84.3 µM (IC50) and the “CP3 Rfact” value is 1.63. In test [2], the IC50 worked out at 61.6 µM and the “C25 Rfact” value stood at 1.19. The same molecule registered a 50% inhibitory concentration (IC50) in test [3] of 51.6 µM.

Take `N#CCc1ccc2c(c1)OCO2.N#CCc1ccc2c(c1)OCO2.[Cl][Pt@SP1][Cl]` [BNP3016, Cis-bis(3,4-(methylenedioxy)phenylacetonitrile)dichloroplatinum (II)]: the IC50 in test [1] was 75.6 µM; in test [2], 66.5 µM; in test [3] it was 62.4 µM. Moreover, the “CP3 Rfact” value in test [1] is listed as 1.21. For the same molecule, the “C25 Rfact” value in test [2] turned out to be 1.07.

Take `COC(CCC#N)c1ccccc1.COC(CCC#N)c1ccccc1.[Cl][Pt@SP1][Cl]` (stereo not drawn) [BNP3017, Cis-bis(4-methoxy-4-phenylbutyronitrile)dichloroplatinum (II)]: the IC50 in test [1] worked out at 18.8 µM; in test [2], 18.1 µM; in test [3] it was 14 µM. For the same molecule, in test [1], the “CP3 Rfact” value was determined as 1.34. Further, the “C25 Rfact” value in test [2] was 1.29.

With `N#CCCCc1ccccc1.N#CCCCc1ccccc1.[Cl][Pt@SP1][Cl]` [BNP3029/c, Cis-bis-(4-phenylbutyronitrile)dichloroplatinum (II)], the IC50 was 6.88 µM in test [1], 5.45 µM in test [2] and 4.4 µM in test [3]. Besides, the “CP3 Rfact” value in test [1] is 1.56. The “C25 Rfact” value in test [2] came to 1.24.
